# Measured values as given in US11006626B2, “Compounds for protection of cells” (Sulfateq B.V., priority 2012, dated 2021).
# Where two headings read alike, the source gives them in different places.
# Assays:
# blood platelets = experiment: Cold storage of PRP blood platelets, aggregation of thrombocytes after storage; assay type: cell-based; design: key: − means that most of the thrombocytes were aggregated; a + indicates that a few cells were still viable but some cells aggregated; a ++ indicates that almost all cells were viable; settings: 30 mM; PRP platelets stored at 4° C.; 264 hours
# Experimental: PRP platelets were harvested and 2.1 ml was suspended in Poly Propylene tubes of 5 ml, closed with a stop.
# Several compounds according to the invention were added to the blood platelets directly after preparing the PRP plasma and incubated during 10 minutes at 37° C. or 30 minutes at room temperature. The blood platelets with the compound were then stored at 4° C.
# A control was stored under shaking conditions at room temperature. Another control was stored at 4° C. without the addition of a compound.
# A sample was taken out of each tube after 264 hours after addition of the compound and tested as follows: • The color and coagulation properties were visually analysed. • The thrombocyte cells that survived were counted and it was evaluated whether the thrombocytes were aggregated. • It was evaluated if the thrombocytes still were able to function after stimulation by the addition of ADP or under influence of collagen in a 96 well plate. • The adhesion was evaluated, meaning the ability of the platelets to bind collagen in a 6 well plate preincubated with collagen. • Via an ELISA assay, it was evaluated whether thromboxane was secreted from the platelets. Thromboxane facilitates aggregation and is produced by activated blood platelets.
# Table 3 provides an overview of the results of the addition of the compounds to the blood platelets and evaluates the aggregation of the thrombocytes after addition of the compound according to the invention and cooling until 4° C.
# [1] = system: Human Embryo Kidney (HEK) 293 cells; experiment: Hypothermia/rewarming injury of HEK cells, trypan blue viability count; assay type: cell-based; settings: for viability at 0.01 µM / viability at 0.1 µM / viability at 1 µM / viability at 10 µM / viability at 100 µM / viability at 1000 µM: Homo sapiens, read-out: % cells that survived; for viability at 0.01 µM / viability at 0.1 µM / viability at 1 µM / viability at 10 µM / viability at 100 µM / viability at 1000 µM / % cells that survived: 24 h at 4° C., 24 h rewarming; for % cells that survived, Mean: mean over the tested concentrations
# Experimental: Human Embryo Kidney (HEK) 293 cells were cultured in DMEM cell culture medium (Life Technologies, 41965-052) supplemented with fetal calf serum, penicillin and streptomycin. Cells were seeded at a density of 0.8-1.2E6 mL-1 in 25 cm2 polystyrene flasks, placed in a 37° C.
# The compounds were dissolved in dimethyl sulfoxide (DMSO) to several concentrations. Before commencing experiments, this stock solution was dissolved in pre-warmed DMEM and further diluted to obtain a concentration range from 10 nM-1 mM. Cell culture medium was then replaced by these dilutions and cells were incubated in the presence of the compound for 1 hour. After incubation, lids were closed tightly and flasks were placed in a 4° C. room and cooled for 24 hours. After this cooling period, cells were placed back in the 37° C. incubator with lids closed and were allowed to rewarm for another 24 hours.
# After this rewarming period, microscopic images were taken to assess cell morphology (Nikon D5100, Nikon Diaphot-TMD). Cell culture medium was collected and centrifuged (4 minutes, 2000 rpm). The supernatant was collected and pH was immediately measured to prevent equilibration of the pH by the carbonate buffer in the medium, while the pelleted cells were resuspended in 5 mL of PBS. Cells remaining in the flask were washed twice with phosphate buffered saline (PBS) while the washing product was discarded. Subsequently, the cells were trypsinized by addition of 0.5 mL of trypsine and pooled with the resuspended pellet. This cell suspension was then stained at a final concentration of 0.2% trypan blue (Sigma, T8154), followed by manual assessment of viability and cell number on a Bürker-Türk hemocytometer. To conclude the assay, cell culture medium glucose levels were measured (Roche Accutrend Plus) as an indication of metabolic activity. All of these steps were performed with care to prevent mechanical stress to influence or alter the viability of the cells after cooling.
# The amount represents the % cells that survived. […] In the control, the same procedure was applied to two badges of HEK cells.
SMILES,Aggregation of blood platelets after storage (blood platelets),"viability at 0.01 µM ([1]; HEK293, 24 h, 10 nM)","viability at 0.1 µM ([1]; HEK293, 24 h, 100 nM)","viability at 1 µM ([1]; HEK293, 24 h, 1 μM)","viability at 10 µM ([1]; HEK293, 24 h, 10 μM)","viability at 100 µM ([1]; HEK293, 24 h, 100 μM)","viability at 1000 µM ([1]; HEK293, 24 h, 1 mM)","% cells that survived, Mean [1]",% cells that survived ([1]; 10 nM),% cells that survived ([1]; 100 nM),% cells that survived ([1]; 1 μM),% cells that survived ([1]; 10 μM),% cells that survived ([1]; 100 μM),% cells that survived ([1]; 1 mM),"viability at 0.01 µM ([1]; HEK293, 10 nM)","viability at 0.1 µM ([1]; HEK293, 100 nM)","viability at 1 µM ([1]; HEK293, 1 μM)","viability at 10 µM ([1]; HEK293, 10 μM)","viability at 100 µM ([1]; HEK293, 100 μM)","viability at 1000 µM ([1]; HEK293, 1 mM)"
"Cc1c(C)c2c(c(C)c1O)CCC(C)(C(=O)N1CCNCC1)O2 (centres unmarked) [SUL - 121, (6-hydroxy-2,5,7,8-tetramethylchroman-2-yl)(piperazin-1-yl)methanone]",+,87.3%,89%,94.8%,88.9%,92.7%,0%,75%,–,–,–,–,–,–,–,–,–,–,–,–
"Cc1c(C)c2c(c(C)c1O)CC[C@@](C)(C(=O)NO)O2 [SUL - 126, (S)-N,6-dihydroxy-2,5,7,8-tetramethylchroman-2-carboxamide]",+,0%,0%,68.1%,92.7%,98.6%,80.2%,57%,–,–,–,–,–,–,–,–,–,–,–,–
"Cc1c2c(c(C(C)C)c(O)c1C(C)C)CCC(C)(C(=O)O)O2 (centres unmarked) [SUL - 118, 6-hydroxy-5,7-diisopropyl-2,8-dimethylchroman-2-carboxylic acid]",+,13.7%,45.7%,36.2%,52.9%,88.5%,92.5%,55%,–,–,–,–,–,–,–,–,–,–,–,–
"Cc1c(C)c2c(c(C)c1O)CCC(C)(C(=O)N1CCC[C@H]1C(=O)O)O2 (single isomer, unassigned) [SUL - 145]",+,–,–,–,–,–,–,40%,12.99%,28.68%,21.43%,7.84%,78.61%,88.08%,–,–,–,–,–,–
"CCCCNCC1(C)CCc2c(C)c(O)c(C)c(C)c2O1 (centres unmarked) [SUL - 117, 2-((butylamino)methyl)-2,5,7,8-tetramethylchroman-6-ol]",+,0.72%,89.3%,93.6%,84.8%,90.1%,0%,60%,–,–,–,–,–,–,–,–,–,–,–,–
"Cc1c2c(c(C(C)C)c(O)c1C(C)C)CCC(C)(C(=O)N1CCN(CC(=O)O)CC1)O2 (centres unmarked) [SUL - 139, 2-(4-(6-hydroxy-5,7-diisopropyl-2,8-dimethylchroman-2-carbonyl)piperazin-1-yl)acetic acid]",+,13.3%,4.57%,4.26%,90%,89.7%,80.3%,47%,–,–,–,–,–,–,–,–,–,–,–,–
"Cc1c(C)c2c(c(C)c1O)CCC(C)(C(=O)N1CCC[C@H]1C(=O)O)O2 (mixture of isomers) [SUL - 143, (2S)-1-(6-hydroxy-2,5,7,8-tetramethylchroman-2-carbonyl)pyrrolidine-2-carboxylic acid]",+,30.6%,35%,14.9%,49.5%,97.8%,98.4%,54%,–,–,–,–,–,–,–,–,–,–,–,–
"Cc1c(C)c2c(c(C)c1O)CC[C@](C)(C(=O)N1CCN(CC(=O)O)CC1)O2 [SUL - 142, (R)-2-(4-(6-hydroxy-2,5,7,8-tetramethylchroman-2-carbonyl)piperazin-1-yl)acetic acid]",++,0%,73%,98.5%,99.2%,99.4%,91.9%,77%,–,–,–,–,–,–,–,–,–,–,–,–
"Cc1c(C)c2c(c(C)c1O)CC[C@](C)(C(=O)NO)O2 [SUL - 125, (R)-N,6-dihydroxy-2,5,7,8-tetramethylchroman-2-carboxamide]",+,8.09%,0%,97.3%,96.7%,88.4%,22.5%,52%,–,–,–,–,–,–,–,–,–,–,–,–
"Cc1c(C)c2c(c(C)c1O)CCC(C)(C(=O)N1CCC[C@H]1C(=O)O)O2 (single isomer, unassigned) [SUL - 144]",+,–,18.3%,21.6%,–,91%,92.6%,42%,4.08%,–,–,25.93%,–,–,–,–,–,–,–,–
"Cc1c(C)c2c(c(C)c1O)CCC(C)(C(=O)N1CCN(CCO)CC1)O2 (centres unmarked) [SUL - 138, (6-hydroxy-2,5,7,8-tetramethylchroman-2-yl)(4-(2-hydroxyethyl)piperazin-1-yl)methanone]",+,–,–,–,–,–,–,89%,92.84%,91.74%,77.01%,91.71%,93.30%,86.94%,–,–,–,–,–,–
"Cc1c(C)c2c(c(C)c1O)CCC(C)(C)O2 [SUL - 83, 2,2,5,7,8-pentamethylchroman-6-ol]",–,–,0%,79.4%,70.1%,55.7%,1.11%,41%,–,–,–,–,–,–,–,–,–,–,–,–
"Cc1c2c(c(C(C)C)c(O)c1C(C)C)CCC(C)(C(=O)NO)O2 (centres unmarked) [SUL - 131, N,6-dihydroxy-5,7-diisopropyl-2,8-dimethylchroman-2-carboxamide]",–,2.99%,1.59%,22.5%,91.1%,75.4%,0%,32%,–,–,–,–,–,–,–,–,–,–,–,–
"Cc1c(C)c2c(c(C)c1O)CCC(C)(CN1CCCCC1)O2 (centres unmarked) [SUL - 130, 2,5,7,8-tetramethyl-2-(piperidin-1-ylmethyl)chroman-6-ol]",–,0%,12.7%,85.7%,89.6%,86.5%,1.49%,46%,–,–,–,–,–,–,–,–,–,–,–,–
"Cc1c(C)c2c(c(C)c1O)CC[C@](C)(C(=O)O)O2 [SUL - 85, (R)-6-hydroxy-2,5,7,8-tetramethylchroman-2-carboxylic acid]",–,–,1.23%,0%,1.43%,84.9%,78.3%,33%,–,–,–,–,–,–,–,–,–,–,–,–
"Cc1c(C)c2c(c(C)c1O)CCC(C)(C(=O)N1CCN(CCOCCO)CC1)O2 (centres unmarked) [SUL - 122, (6-hydroxy-2,5,7,8-tetramethylchroman-2-yl)(4-(2-(2-hydroxyethoxy)ethyl)piperazin-1-yl)methanone]",–,5.15%,22.5%,85.6%,85.2%,88.5%,55.6%,57%,–,–,–,–,–,–,–,–,–,–,–,–
"Cc1c(C)c2c(c(C)c1O)CCC(C)(C(=O)NCCBr)O2 (centres unmarked) [SUL - 114, N-(2-bromoethyl)-6-hydroxy-2,5,7,8-tetramethylchroman-2-carboxamide]",–,–,–,–,–,–,–,71%,–,–,–,–,–,–,81.1%,87.2%,89.9%,87.7%,77.9%,0%
"CCCCNC(=O)C1(C)CCc2c(C)c(O)c(C)c(C)c2O1 (centres unmarked) [SUL - 91, N-butyl-6-hydroxy-2,5,7,8-tetramethylchroman-2-carboxamide]",–,–,2.28%,82.4%,89.5%,87.5%,0%,52%,–,–,–,–,–,–,–,–,–,–,–,–
